Test results published in patent US6858641B2, “Substituted indolinones” (Boehringer Ingelheim Pharma KG, priority 2001, dated 2005).
pIC50: −log10 of the molar value.

These compounds were tested on Human umbilical endothelial cells (HUVEC) (assay: Inhibition of VEGF165-stimulated HUVEC proliferation (3H-thymidine incorporation)). Conditions: HUVEC stimulated with 5 ng/ml VEGF165 and 10 μg/ml heparin; 76 hours incubation then 16 hours 3H-thymidine; concentration inhibiting proliferation by 50%.
Assay type: cell-based
Procedure: Human umbilical endothelial cells (HUVEC) were cultivated in IMDM (Gibco BRL), supplemented with 10% foetal calf serum (FBS) (Sigma), 50 μM of β-mercaptoethanol (Fluka), standard antibiotics, 15 μg/ml of endothelial cell growth factor (ECGS, Collaborative Biomedical Products) and 100 μg/ml of heparin (Sigma) on gelatine-coated culture dishes (0.2% gelatine, Sigma) at 37° C., under 5% CO2 in a water-saturated atmosphere.
In order to investigate the inhibitory activity of the compounds according to the invention the cells were “starved” for 16 hours, i.e. kept in culture medium without growth factors (ECGS+heparin). The cells were detached from the culture dishes using trypsin/EDTA and washed once in serum-containing medium. Then they were seeded out in amounts of 2.5×10^3 cells per well.
The proliferation of the cells was stimulated with 5 ng/ml of VEGF165 (vascular endothelial growth factor; H. Weich, GBF Braunschweig) and 10 μg/ml of heparin. As a control, 6 wells in each dish were not stimulated.
The compounds according to the invention were dissolved in 100% dimethylsulphoxide and added to the cultures in various dilutions as triple measurements, the maximum dimethylsulphoxide concentration being 0.3%.
The cells were incubated for 76 hours at 37° C., then for a further 16 hours ^3H-thymidine (0.1 μCi/well, Amersham) was added in order to determine the DNA synthesis. Then the radioactively labelled cells were immobilised on filter mats and the radioactivity incorporated was measured in a β-counter. In order to determine the inhibitory activity of the compounds according to the invention the mean value of the non-stimulated cells was subtracted from the mean value of the factor-stimulated cells (in the presence or absence of the compounds according to the invention).
The relative cell proliferation was calculated as a percentage of the control (HUVEC without inhibitor) and the concentration of active substance which inhibits the proliferation of the cells by 50% (IC50) was determined.

Compound	pIC50
COC(=O)c1ccc2c(c1)NC(=O)/C2=C(\Nc1ccc(C(=O)N(C)CCN(C)C)cc1)c1ccccc1 [(a), methyl 3-(Z)-[1-{4-[N-(2-dimethylamino-ethyl)-N-methyl-carbamoyl]-phenylamino}-1-phenyl-methylidene]-2-indolinone-6-carboxylate]	7.40
COC(=O)c1ccc2c(c1)NC(=O)/C2=C(\Nc1ccc(C(=O)N(C)CCCN(C)C)cc1)c1ccccc1 [(b), methyl 3-(Z)-[1-{4-[N-(3-dimethylamino-propyl)-N-methyl-carbamoyl]-phenylamino}-1-phenyl-methylidene]-2-indolinone-6-carboxylate]	7.70
methyl 3-(Z)-[1-{4-[(4-(2-hydroxy-ethyl)-piperazin-1-yl)-carbonyl]-phenylamino}1-phenyl-methylidene]-2-indolinone-6-carboxylate [(i)]	7.70
methyl 3-(Z)-[1-{4-[(4-ethyl-piperazin-1-yl)-carbonyl]-phenylamino}-1-phenyl-methylidene]-2-indolinone-6-carboxylate [(h)]	7.70
methyl 3-(Z)-[1-{4-[(4-hydroxy-piperidin-1-yl)-carbonyl]-phenylamino}-1-phenyl-methylidene]-2-indolinone-6-carboxylate [(d)]	7.30
methyl 3-(Z)-[1-{4-[(4-methyl-piperazin-1-yl)-carbonyl]-phenylamino}-1-phenyl-methylidene]-2-indolinone-6-carboxylate [(c)]	7.52
